Like-named read-outs stand apart in the source and are kept apart here.
Columns and labels:
P. falciparum schizonts = test: Giemsa stained thin smears after rupture cycle (schizont maturation, PCM); format: cell-based, Plasmodium falciparum; conditions: for schizont maturation / development on giemsa stained thin smears / Protease inhibitor Clusters of Merozoites (PCM) on giemsa stained slides: inhibitor concentrations as in FIG. 6A
Procedure: (§1) Protease inhibitors. Protease inhibitors were tested for their effect on AMA-1 processing. All inhibitors were from Sigma Chemicals. PMSF, pepstatin and TPCK were dissolved in 100% ethanol. Antipain, leupeptin, and 1,10-phenanthroline stocks were made in water. EDTA and EGTA stocks were made in PBS (pH adjusted to 7.2), TLCK was prepared in 1 mM HCl, E64 and chymostatin were prepared in DMSO. All stocks were at 100× concentration. 1.5 μl of the protease inhibitor or its respective solvent control was added to 15 μl PBS and then 135 μl of (1×10^7/ml) Percoll purified mid-stage schizonts were added. The processing assay was carried out as described above. Parallel assay with protease inhibitors was carried out in two similarly prepared plates to which RBC were also added to a final 4% hematocrit. Parasites in the first plate were allowed to invade in suspension at 37° C. and thin smears were prepared after the rupture cycle for giemsa staining and examination for the presence of Protease inhibitor Clusters of Merozoites (PCM) (Lyon and Haynes, 1986, J. Immunol. 136, 2245-2251). In the second plate parasites (135 μl of 5×10^6/ml schizonts+RBC at 4% hematocrit) were incubated overnight and ring forms were quantitated by flow cytometry as a measure of parasite invasion (Haynes et al., 2002, supra).

[1] = tested on: PfAMA-1 processing on merozoites; test: AMA-1 processing assay / processing inhibition assay (PIA), western blot; format: cell-based, P. falciparum clone 3D7; conditions: for accumulation of PfAMA-1 66: FIG. 6A, 6B; for formation of trapped PfAMA-1 52 and PfAMA-1 48+44: with trapping antibodies (1:2500 anti-AMA-1 sera pool)
Procedure: AMA-1 processing assay, or processing inhibition assay (PIA). P. falciparum clone 3D7 cultures were prepared as described previously (Haynes and Moch, 2002, Methods Mol. Med. 72, 489-497), culture media included 10% heat inactivated normal human serum in bicarbonate-containing RPMI 1640 containing final 0.42 mM Ca^+2 and 0.40 mM Mg^+2. Fifteen microliters of heat inactivated rabbit serum (dialyzed against RPMI 1640 or used directly after heat inactivation) or purified IgG or Fab fragments was mixed with 135 μl of synchronized (Haynes and Moch, 2002, supra), Percoll-alanine purified (Kanaani and Ginsburg, 1989, J. Biol. Chem. 264, 3194-3199), mid-stage (˜8 nuclei), >90% pure schizonts (1×10^7 per ml) in a 48 well culture plate. PBS was used as a diluent if necessary. The plate was placed in a plastic bag, gassed with 5% O2-5% CO2, heatsealed, and incubated at 37° C. for ˜6 h (Haynes et al., 2002, Methods Mol. Med. 72, 535-554). Aliquots from a control culture flask were taken to monitor the percent rupture of schizonts by hemocytometer. After ˜90% schizonts had ruptured, the contents of each well were transferred to a microfuge tube and centrifuged at 10,000× g for 5 min. The supernatant was aspirated and the resulting parasite pellet was washed with 0.5 ml chilled PBS and centrifuged as before. The supernatant was discarded and 150 μl of 1× NuPAGE sample buffer (Invitrogen) was added to the tubes, samples were frozen at −30° C. until analyzed. Soluble forms of AMA-1 were immuno-precipitated from the processing assay culture supernatants or from culture supernatant of routinely maintained parasites using MagnaBind Goat anti-Rabbit IgG coated Magnetic Beads (Pierce). Two types of western blots have been used to detect AMA-1 fragments. First set of westerns in FIGS. 1 to 6 have been developed using biotinylated polyclonal IgG against recombinant AMA-1. A second set of western blots, FIG. 6 onwards, has been developed using two biotinylated primary antibodies, mAb 28G2dc1 (1:1000) and polyclonal anti-AMA-1 IgG (1:1000) used simultaneously in order to immunostain all the AMA-1 specific fragments on the blot.
as §1
PAGE and Western blotting. Samples were briefly sonicated with a microtip sonicator, heated at 80° C. for 2 min, spun down and 16 μl was applied per well to a precast 4-12% gradient polyacrylamide gel (NuPAGE Bis-Tris; Invitrogen). Samples were run under non-reduced conditions unless specified. DTT at 50 mM was added to samples resolved under reduced conditions. Proteins from the gel were electrophoretically transferred to nitrocellulose membrane and blocked with 5% BSA in PBS containing 0.05% Tween-20 overnight at 4° C. […]

[2] = tested on: P. falciparum merozoite invasion of RBC; test: microbe, parasite or virus in culture; format: cell-based, Plasmodium falciparum; conditions: for inhibition of RBC invasion: 1 mM
Procedure: as §1

[3] = EDTA, EGTA 1 mM (2-0.25 mM in dose response)

Structure (SMILES): c1cnc2c(c1)ccc1cccnc12 [1,10-phenanthroline]
- schizont maturation / development on giemsa stained thin smears (P. falciparum schizonts): interrupted schizont maturation

Structure (SMILES): CC(C)C[C@H](NC(=O)[C@H]1O[C@@H]1C(=O)O)C(=O)NCCCCN=C(N)N [E64]
- Protease inhibitor Clusters of Merozoites (PCM) on giemsa stained slides (P. falciparum schizonts): PCM's were observed

Structure (SMILES): O=C(O)CN(CCN(CC(=O)O)CC(=O)O)CC(=O)O [EDTA]
- accumulation of PfAMA-1 66 [1, 3]: caused accumulation of PfAMA-166
- formation of trapped PfAMA-1 52 and PfAMA-1 48+44 [1]: inhibited the formation of only PfAMA-148+44
- schizont rupture (P. falciparum schizonts): did not affect schizont rupture
- inhibition of RBC invasion [2]: ~40%

Structure (SMILES): O=C(O)CN(CCOCCOCCN(CC(=O)O)CC(=O)O)CC(=O)O [EGTA]
- accumulation of PfAMA-1 66 [1, 3]: caused accumulation of PfAMA-166
- formation of trapped PfAMA-1 52 and PfAMA-1 48+44 [1]: inhibited the formation of only PfAMA-148+44
- schizont rupture (P. falciparum schizonts; 1 mM): did not affect schizont rupture
- inhibition of RBC invasion [2]: ~20%

Structure (SMILES): O=S(=O)(F)Cc1ccccc1 [PMSF]
- schizont maturation / development on giemsa stained thin smears (P. falciparum schizonts): interrupted schizont maturation

Structure (SMILES): Cc1ccc(S(=O)(=O)N[C@@H](CCCCN)C(=O)CCl)cc1 [TLCK]
- schizont maturation / development on giemsa stained thin smears (P. falciparum schizonts): interrupted schizont maturation

Structure (SMILES): Cc1ccc(S(=O)(=O)N[C@@H](Cc2ccccc2)C(=O)CCl)cc1 [TPCK]
- schizont maturation / development on giemsa stained thin smears (P. falciparum schizonts): interrupted schizont maturation

Structure (SMILES): CC(C)C[C@H](NC(=O)[C@@H](NC(=O)N[C@@H](Cc1ccccc1)C(=O)O)[C@@H]1CCN=C(N)N1)C(=O)N[C@H](C=O)Cc1ccccc1 [chymostatin]
- accumulation of PfAMA-1 66 ([1]; chymostatin 100-12.5 μM): found to accumulate
- formation of trapped PfAMA-1 52 and PfAMA-1 48+44 [1]: formation of both PfAMA-152 and PfAMA-148+44 were inhibited
- Protease inhibitor Clusters of Merozoites (PCM) on giemsa stained slides (P. falciparum schizonts): PCM's were observed
- schizont maturation / development on giemsa stained thin smears (P. falciparum schizonts): did not block schizont development
- inhibition at 100 µM ([2]; Plasmodium falciparum, read-out: inhibition of merozoite invasion): > 90%

Structure (SMILES): CC(=O)N[C@@H](CC(C)C)C(=O)N[C@@H](CC(C)C)C(=O)N[C@H](C=O)CCCNC(=N)N [leupeptin]
- Protease inhibitor Clusters of Merozoites (PCM) on giemsa stained slides (P. falciparum schizonts): PCM's were observed
